The values below come from patent US20260234568A1, “TUMOR STORAGE AND CELL CULTURE COMPOSITIONS” (Iovance Biotherapeutics, Inc., priority 2021, published 2026).

The test system of series [1] is Pre-REP TIL. In kind it is cell-based. As to the method: Phase 1: Small Scale Evaluation of Various Antibiotics in shipping medium and CM1 were conducted in 2 separate rounds using 2 different tumors as shown in Tables 53 and 54. The cultures were terminated after the Pre-REP. All the overnight incubations in HTS included 2.5 μg/mL Amphotericin B (or 10 μg/mL for the “high AmpB concentration” condition) and 50 μg/mL gentamicin
All the test and control conditions were tested in quadruplicates. Total Viable Cells and % Viability was recorded on Day 11 of Pre-REP.

The subject of series [2] is Pre-REP TIL. Briefly: Phase II full scale Pre-REP: extended phenotype of Day 11 samples. As to conditions: 100 μg/mL in tumor shipping medium and CM1 Pre-REP media.
Protocol: The received tumor was separated into 2 equal portions and stored overnight similarly to the overnight incubation in phase I of testing. The chosen antibiotic condition was tested against Gentamicin Sulfate control at full scale Pre-REP according to the Day 0 Gen 2 Batch Record. TVC, viability, identity, function, and extended phenotyping data were obtained.
Both antibiotics were tested in shipping medium and CM1 at a concentration of 100 μg/mL.
Series [3] deals with S. aureus. Briefly: Antibiotics on growth of bacteria in culture media (HTS then CM1). In kind it is cell-based. As to conditions: S. aureus (strain 1), HTS 24 hours at 2-8° C., then CM1 11 days, Gentamicin 50 μg/mL, Vancomycin 100 μg/mL. The protocol:
In these experiments, the following antibiotics were added to Gram+bacteria S. aureus and E. faecalis in hypothermosol (HTS) at three different concentrations of bacteria: • a. Gentamicin (50 μg/mL) • b. […] Vancomycin (100 μg/mL)

In series [4] the test system is E. faecalis. Described as above. In kind it is cell-based. As to conditions: HTS 24 hours at 2-8° C., then CM1 11 days, Gentamicin 50 μg/mL, Vancomycin 100 μg/mL.
Protocol: Additional experiments were performed to test the ability of vancomycin to prevent growth of vancomycin sensitive bacteria in culture medium. In these experiments, the following antibiotics were added to Gram+bacteria S. aureus and E. faecalis in hypothermosol (HTS) at three different concentrations of bacteria: • a. Gentamicin (50 μg/mL) • b. Gentamicin (50 μg/mL)+Vancomycin (100 μg/mL) • c. Vancomycin (100 μg/mL)
The mixtures were incubated at 24 hours at 2-8° C. and then 1 mL of each of the samples were added to 20 mL of CM1 medium in the same concentrations of antibiotics above. The mixtures were incubated for 11 days and bacterial growth was visually assessed.
The subject of series [5] is S. aureus. As to conditions: for bacterial growth, visually assessed: S. aureus (strain 1), inoculated tissue fragments, washed 3×, 11 days.
Protocol: Additional experiments were performed to test the ability of vancomycin to prevent growth of vancomycin sensitive bacteria in culture medium. In these experiments, tissue fragments were inoculated in HTS with three different loads of S. aureus and E. faecalis bacteria and the following antibiotics: • a.
The 6 HTS inoculates (iHTS) shown were incubated at 24 hours at 2-8° C. and washed 3× with tumor wash buffer with the same concentrations of antibiotics above. The tumor samples were incubated for 11 days and bacterial growth was visually assessed.
The subject of series [6] is E. faecalis. The experiment in a line: Antibiotics on bacterial growth of inoculated tissue fragments (HTS, wash, CM1). As to conditions: for bacterial growth, visually assessed: inoculated tissue fragments, washed 3×, 11 days. In kind it is cell-based. As to the method:
Gentamicin (50 μg/mL) • b. […] Vancomycin (100 μg/mL)

Like-named read-outs stand apart in the source and are kept apart here.

Turning to `C[C@@H]1[C@H](O)[C@@H](C)/C=C/C=C/C=C/C=C/C=C/C=C/C=C/[C@H](O[C@@H]2O[C@H](C)[C@@H](O)[C@H](N)[C@@H]2O)C[C@@H]2O[C@](O)(C[C@@H](O)C[C@@H](O)[C@H](O)CC[C@@H](O)C[C@@H](O)CC(=O)O[C@H]1C)C[C@H](O)[C@H]2C(=O)O` [amphotericin B], the “cytotoxicity / impact on Pre-REP TIL cell growth (in words)” value in series [1] (Day 11 of Pre-REP, quadruplicates, with 50 μg/mL gentamicin) was “did not appear cytotoxic”.
For the compound `CN[C@H](CC(C)C)C(=O)N[C@H]1C(=O)N[C@@H](CC(N)=O)C(=O)N[C@H]2C(=O)N[C@H]3C(=O)N[C@H](C(=O)N[C@H](C(=O)O)c4cc(O)cc(O)c4-c4cc3ccc4O)[C@H](O)c3ccc(c(Cl)c3)Oc3cc2cc(c3O[C@@H]2O[C@H](CO)[C@@H](O)[C@H](O)[C@H]2O[C@H]2C[C@](C)(N)[C@H](O)[C@H](C)O2)Oc2ccc(cc2Cl)[C@H]1O` [vancomycin], in series [2], the “effect on the Pre-REP cell product (TVC, Viability, Identity, Function, Extended Phenotyping; in words)” value is “no deleterious effect”. Also, the “bacterial growth, visually assessed” value in series [3] was “inhibited grown”; in series [3] (listed as Vanco) it was “No Growth”; in series [4], “inhibited grown”; in series [4] (listed as Vanco), “No Growth”; in series [5] (Bacterial Load High), “No Growth”; in series [5] (Bacterial Load Low), “No Growth”. Further, the “bacterial growth, visually assessed” value in series [5] (Bacterial Load Med), in series [6] (Bacterial Load High), in series [6] (Bacterial Load Low) and in series [6] (Bacterial Load Med) was “No Growth” in each case. Further, the “bacterial growth (summary in words)” value was “no observed growth” in series [5] (S. aureus, all the bacterial loads tested) and “no observed growth” in series [6] (all the bacterial loads tested). Further, the “cytotoxicity / impact on Pre-REP TIL cell growth (in words)” value in series [1] was “least cytotoxicity”.
